Assay results: patent US7612113B2, “Hydroxy tetrahydro-naphthalenylurea derivatives” (Xention Limited, priority 2002, dated 2009)
Where two headings read alike, the source gives them in different places.

Legend:
[1] = biological target: T1, human VR1 (Homo sapiens, UniProt Q8NER1); experiment: capsaicin-induced Ca2+ influx in the human VR1-transfected CHO cell line (Assay 1); type: cell-based; settings: 10 nM capsaicin, human VR1-CHOluc9aeq cells
T1 construct: expressed in transfected cells
Description: [Measurement of capsaicin-induced Ca^2+ influx in the human VR1-transfected CHO cell line] (Assay 1)
• (1) Establishment of the Human VR1-CHOluc9aeq Cell Line • Human vanilloid receptor (hVR1) cDNA was cloned from libraries of axotomized dorsal root ganglia (WO 00/29577). The cloned hVR1 cDNA was constructed with pcDNA3 vector and transfected into a CHOluc9aeq cell line. The cell line contains aequorin and CRE-luciferase reporter genes as read-out signals. The transfectants were cloned by limiting dilution in selection medium (DMEM/F12 medium (Gibco BRL) supplemented with 10% FCS, 1.4 mM Sodium pyruvate, 20 mM HEPES, 0.15% Sodium bicarbonate, 100 U/ml penicillin, 100 μg/ml streptomycin, 2 mM glutamine, non-essential amino acids and 2 mg/ml G418). Ca^2+ influx was examined in the capsaicin-stimulated clones. A high responder clone was selected and used for further experiments in the project. The human VR1-CHOluc9aeq cells were maintained in the selection medium and passaged every 3-4 days at 1-2.5×10^5 cells/flask ([…]). • (2) Measurement of Ca^2+ Influx Using FDSS-3000 • Human VR1-CHOluc9aeq cells were suspended in a culture medium which is the same as the selection medium except for G418 and seeded at a density of 1,000 cells per well into 384-well plates (black walled clear-base/Nalge Nunc International). Following the culture for 48 hrs the medium was changed to 2 μM Fluo-3 AM (Molecular Probes) and 0.02% Puronic F-127 in assay buffer (Hank's balanced salt solution (HBSS), 17 mM HEPES (pH7.4), 1 mM Probenecid, 0.1% BSA) and the cells were incubated for 60 min at. 25° C. After washing twice with assay buffer the cells were incubated with a test compound or vehicle for 20 min at 25° C. Mobilization of cytoplasmic Ca^2+ was measured by FDSS-3000 (λex=488 nm, λem=540 nm/Hamamatsu Photonics) for 60 sec after the stimulation with 10 nM capsaicin. Integral R was calculated and compared with controls. [Measurement of the Capsaicin-Induced Ca^2+ Influx in Primary Cultured Rat Dorsal Root Ganglia Neurons] (Assay 2) • (1) Preparation of Rat Dorsal Root Ganglia Neurons • New born Wister rats (5-11 days) were sacrificed and dorsal root ganglia (DRG) was removed. DRG was incubated with 0.1% trypsin (Gibco BRL) in PBS(−) (Gibco BRL) for 30 min at 37° C., then a half volume of fetal calf serum (FCS) was added and the cells were spun down. The DRG neuron cells were resuspended in Ham F12/5% FCS/5% horse serum (Gibco BRL) and dispersed by repeated pipetting and passing through 70 μm mesh Falcon). The culture plate was incubated for 3 hours at 37° C. to remove contaminating Schwann cells. Non-adherent cells were recovered and further cultured in laminin-coated 384 well plates (Nunc) at 1×10^4 cells/50 μl/well for 2 days in the presence of 50 ng/ml recombinant rat NGF (Sigma) and 50 μM 5-fluorodeoxyuridine (Sigma). • (2) Ca^2+ Mobilization Assay • DRG neuron cells were washed twice with HBSS supplemented with 17 mM HEPES (pH 7.4) and 0.1% BSA. After incubating with 2 μM fluo-3AM (Molecular Probe), 0.02% PF127 (Gibco BRL) and 1 mM probenecid (Sigma) for 40 min at 37° C., cells were washed 3 times. The cells were incubated with VR1 antagonists or vehicle (dimethylsulphoxide) and then with 1 μM capsaicin in FDSS-6000 (λex=480 nm, λem=520 nm/Hamamatsu Photonics). The fluorescence changes at 480 nm were monitored for 2.5 min. Integral R was calculated and compared with controls. [Organ Bath Assay to Measure the Capsaicin-Induced Bladder Contraction] (Assay 3)
The data corresponds to the compounds as yielded by solid phase synthesis and thus to levels of purity of about 40 to 90%. For practical reasons, the compounds are grouped in four classes of activity as follows: IC50=A(<or=)0.1 μM<B(<or=)0.5 μM<C(<or=)1 μM<D

[2] = Table 1, read-out: activity class
[3] = read-out: In vitro activity class
[4] = Table 3, read-out: activity class
[5] = Table 2, read-out: activity class

T1 sequence (Q8NER1 whole entry): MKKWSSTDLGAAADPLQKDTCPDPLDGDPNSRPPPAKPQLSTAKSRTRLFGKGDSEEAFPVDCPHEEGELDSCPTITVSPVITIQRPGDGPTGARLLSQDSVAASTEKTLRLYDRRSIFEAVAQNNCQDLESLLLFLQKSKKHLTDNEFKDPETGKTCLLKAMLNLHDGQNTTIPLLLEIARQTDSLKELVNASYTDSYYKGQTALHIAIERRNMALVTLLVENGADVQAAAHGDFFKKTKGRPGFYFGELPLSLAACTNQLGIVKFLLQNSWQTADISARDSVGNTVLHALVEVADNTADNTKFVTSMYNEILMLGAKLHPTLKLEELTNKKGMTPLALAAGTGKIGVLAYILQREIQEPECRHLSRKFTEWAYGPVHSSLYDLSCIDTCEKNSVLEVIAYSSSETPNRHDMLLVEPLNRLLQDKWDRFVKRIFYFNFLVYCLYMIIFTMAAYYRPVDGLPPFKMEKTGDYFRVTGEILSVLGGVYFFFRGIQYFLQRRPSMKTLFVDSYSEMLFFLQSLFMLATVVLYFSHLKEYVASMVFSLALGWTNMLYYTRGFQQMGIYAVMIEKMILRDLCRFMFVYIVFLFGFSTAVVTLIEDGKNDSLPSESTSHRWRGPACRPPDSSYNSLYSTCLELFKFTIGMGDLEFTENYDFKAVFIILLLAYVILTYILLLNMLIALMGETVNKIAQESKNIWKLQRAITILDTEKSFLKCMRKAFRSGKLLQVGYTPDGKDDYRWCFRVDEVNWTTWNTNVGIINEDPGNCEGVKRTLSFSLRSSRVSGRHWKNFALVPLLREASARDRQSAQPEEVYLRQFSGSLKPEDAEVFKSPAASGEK

IC50 [1, 2] [µM] | melting point [°C] | IC50 [1, 5] [µM] | SMILES | also measured
0.5 to 1 | 217 to 219 |  | O=C(Nc1ccccc1C(F)(F)F)Nc1cccc2c1CC(O)CC2 (stereo not drawn) [Example 2-7] | 
< 0.1 | 219 to 220 |  | Cc1ccc(NC(=O)Nc2ccc(Cl)c(C(F)(F)F)c2)c2c1CCC(O)C2 (stereo not drawn) [Example 2-39] | 
> 1 | 216 to 217 |  | CCNC(=O)Nc1cccc2c1CC(O)CC2 (stereo not drawn) [Example 2-33] | 
> 1 | 206 to 207 |  | CN(C)c1ccc(NC(=O)Nc2cccc3c2CC(O)CC3)cc1 (stereo not drawn) [Example 2-21] | 
 | 198 to 200 |  | O=C(Nc1ccc(OC(F)(F)F)cc1)Nc1cccc2c1CC(O)CC2 (stereo not drawn) [Example 5-1, N-(7-hydroxy-5,6,7,8-tetrahydro-naphthalen-1-yl)-N′-(4-trifluoromethoxy-phenyl)-urea] | IC50 [1, 3]: < 0.1 µM
< 0.1 | 234 to 235 |  | O=C(Nc1ccc(Cl)c(C(F)(F)F)c1)Nc1ccc(Br)c2c1CC(O)CC2 (stereo not drawn) [Example 2-38] | 
 | 226 to 228 |  | O=C(Nc1cccc(I)c1)Nc1cccc2c1CC(O)CC2 (stereo not drawn) [Example 5-13] | IC50 [1, 4]: < 0.1 µM
0.1 to 0.5 | 194 to 196 |  | Cc1cccc(CNC(=O)Nc2cccc3c2CC(O)CC3)c1 (stereo not drawn) [Example 2-24] | 
0.1 to 0.5 | 214 to 216 |  | O=C(Nc1ccc(F)cc1)Nc1cccc2c1CC(O)CC2 (stereo not drawn) [Example 2-15] | 
 | 204.3 |  | O=C(NCc1ccc(C(F)(F)F)cc1)Nc1cccc2c1C[C@H](O)CC2 [Example 4-4, N-{(R)-7-hydroxy-5,6,7,8-tetrahydro-naphthalen-1-yl}-N′-(4-trifluoromethyl-benzyl)-urea] | IC50 [1, 3]: < 0.1 µM
0.1 to 0.5 | 184 to 187 |  | O=C(NCc1ccccc1F)Nc1cccc2c1CC(O)CC2 (stereo not drawn) [Example 2-27] | 
 | 227 to 228 |  | O=C(Nc1ccc(Cl)c(C(F)(F)F)c1)Nc1cccc2c1CC(O)CC2 (stereo not drawn) [Example 1-1, N-[4-chloro-3-(trifluoromethyl)phenyl]-N′-(7-hydroxy-5,6,7,8-tetrahydro-1-naphthalenyl)urea] | 
< 0.1 | 218 to 221 |  | O=C(NCc1ccc(F)cc1)Nc1cccc2c1CC(O)CC2 (stereo not drawn) [Example 2-29] | 
< 0.1 | 222 to 224 |  | O=C(Nc1ccc(C(F)(F)F)cc1)Nc1cccc2c1CC(O)CC2 (stereo not drawn) [Example 2-9] | 
 | 194 to 195 |  | O=C(Nc1cccc(Oc2ccccc2)c1)Nc1cccc2c1CC(O)CC2 (stereo not drawn) [Example 5-10] | IC50 [1, 4]: < 0.1 µM
0.1 to 0.5 | 209 to 211 |  | COc1ccc(CNC(=O)Nc2cccc3c2CC(O)CC3)cc1 (stereo not drawn) [Example 2-31] | 
 |  |  | O=C(NCc1ccc(C(F)(F)F)cc1)Nc1cccc2c1C[C@@H](O)CC2 [Example 4-5, N-{(S)-7-hydroxy-5,6,7,8-tetrahydro-naphthalen-1-yl}-N′-(4-trifluoromethyl-benzyl)-urea] | IC50 [1, 3]: < 0.1 µM
 |  |  | Cc1cc(NC(=O)Nc2cccc3c2CC(O)CC3)ccc1F (stereo not drawn) [Example 5-24] | IC50 [1, 4]: < 0.1 µM
 |  | < 0.1 | O=C(NCc1ccccc1Br)Nc1cccc2c1CC(O)CC2 (stereo not drawn) [Example 4-21] | 
 |  | 0.1 to 0.5 | CC(NC(=O)Nc1cccc2c1CC(O)CC2)c1ccc(F)cc1 (stereo not drawn) [Example 4-41] | 
 |  | < 0.1 | O=C(NCc1ccc(SC(F)(F)F)cc1)Nc1cccc2c1CC(O)CC2 (stereo not drawn) [Example 4-45] | 
 |  | < 0.1 | O=C(NCc1ccc(C(F)(F)F)c(NC2CCCC2)c1)Nc1cccc2c1CC(O)CC2 (stereo not drawn) [Example 4-52] | 
 |  | < 0.1 | O=C(NCc1ccc(OC(F)(F)F)cc1)Nc1cccc2c1CC(O)CC2 (stereo not drawn) [Example 4-17] | 
 |  | < 0.1 | O=C(NCc1ccc(F)c(F)c1)Nc1cccc2c1CC(O)CC2 (stereo not drawn) [Example 4-12] | 
 |  | < 0.1 | O=C(NCc1ccc(C(F)(F)F)c(NC2CCCC2)c1)Nc1cccc2c1CC(O)CC2 (stereo not drawn) [Example 4-51] | 
 |  | < 0.1 | CC(NC(=O)Nc1cccc2c1CC(O)CC2)c1ccc(Br)cc1 (stereo not drawn) [Example 4-42] | 
 |  | < 0.1 | O=C(NCc1cccc(Br)c1)Nc1cccc2c1CC(O)CC2 (stereo not drawn) [Example 4-24] | 
